The values below come from US8450357B2, “Compositions comprising an aryl pyrazole and/or a formamidine, methods and uses thereof” (Merial Limited, priority 2008, dated 2013).

Series [1] is described as follows: Stability of amitraz in solution, aged at 50° C., HPLC. The format is physicochemical. To be noted: 28 % (w/v) Amitraz in Methyl isobutyl ketone (MIK). As to the method: Formulation comprising amitraz in anisole (formulation L), butyl acetate (formulation M), methyl isobutyl ketone and ethyl benzoate were evaluated for stability by HPLC, similarly to the stability study for formulations comprising compound 1. Thus the formulations were tested for initial concentration of amitraz % (w/v) and aged at 50° C. for three months. The concentration of amitraz in each formulation was determined at 1 month, 2 months and 3 months to determine the stability of amitraz in each formulation.

Series [2] in a line: Stability of formulations comprising Compound 1, accelerated @ 50° C., HPLC. The series is classed as physicochemical. To be noted: solvents or combinations of solvents in Table 1. Here is the method: Compound 1 (3-cyano-1-(2-chloro-6-fluoro-4-trifluoromethylphenyl)-4-dichlorofluoromethylsulfinyl-5-methyl-1H-pyrazole) was dissolved in a solvent or a combination of two or more solvents at 10% w/w. The formulations thus prepared were analyzed, using HPLC, for the content of compound 1 as the initial timepoint reading. Then all formulations were placed at 50° C., and the content of compound 1 in each of them was analyzed at the timepoints of two, four, six and, in some cases, 10 weeks. […] Thus formulations of Compound 1 in the solvents/carriers identified below are shown to be sufficiently stable.

Series [3] relates to ticks (Rhipicephalus sanguineus). The series is described as follows: Study A: tick efficacy of Compound 1 spot-on formulations in dogs. The format is in vivo. As to the method: An initial clinical study was conducted to test the efficacy of Compound 1 (3-cyano-1-(2-chloro-6-fluoro-4-trifluoromethylphenyl)-4-dichlorofluoromethylsulfinyl-5-methyl-1H-pyrazole) against ticks and fleas in various test formulations. Five test groups and an untreated control were evaluated. Each test group included six dogs. Compound was dissolved in a solvent or a combination of two or more solvents at 10% w/w. Test articles were formulated as topical spot-on solutions containing compound 1, 10% w/v in a solvent or a combination of solvents as described above. Dogs were infested with approximately 50 ticks (Rhipicephalus sanguineus) on days −1, 7, 14, 21, 28, 35 and 42. Dogs were also infested with approximately 100 fleas (Ctenocephalides felis) on days −1, 8, 15, 22, 29, 36, and 43. Treatment was applied by parting the hair and applying the formulation directly onto the skin on one spot at the midline of the neck, between the base of the skull and the shoulder blades. The dose rate of each of the topical solutions was 0.1 ml/kg (10 mg/kg) body weight. The efficacy of compound 1 in various formulations is shown Table 2 below.
Negative values indicate % increase in tick counts relative to control.

Regarding `Cc1ccc(/N=C/N(C)/C=N/c2ccc(C)cc2C)c(C)c1` [Amitraz, amitraz], the Amitraz % theoretical in series [1] (1 month at 50° C.) is reported as 93 % theoretical; in series [1] (2 months at 50° C.), 98 % theoretical; in series [1] (3 months at 50° C.), 100 % theoretical.
`Cc1c([S+]([O-])C(F)(Cl)Cl)c(C#N)nn1-c1c(F)cc(C(F)(F)F)cc1Cl` (stereo not drawn) [Compound 1, 3-cyano-1-(2-chloro-6-fluoro-4-trifluoromethylphenyl)-4-dichlorofluoromethylsulfinyl-5-methyl-1H-pyrazole]: the “stability of Compound 1” value in series [2] is “good stability”. Moreover, the “% Efficacy against ticks” value amounted to 48.6% in series [3] (Day 1, Trt. Group 2: 10 mg/kg in Butyl acetate/octyl acetate); 59.0% in series [3] (Day 1, Trt. Group 3: 10 mg/kg in Diethylene glycol monoethyl ether (transcutol)/N-methyl-2-pyrrolidone); 71.5% in series [3] (Day 1, Trt. Group 4: 10 mg/kg in Dipropylene glycol monomethyl ether/butyl acetate); 71.5% in series [3] (Day 1, Trt. Group 5: 10 mg/kg in Diisopropyl adipate); 80.7% in series [3] (Day 1, Trt. Group 6: 10 mg/kg in Triacetin); 67.6% in series [3] (Day 2, Trt. Group 2: 10 mg/kg in Butyl acetate/octyl acetate). Also, the “% Efficacy against ticks” value in series [3] (Day 2, Trt. Group 3: 10 mg/kg in Diethylene glycol monoethyl ether (transcutol)/N-methyl-2-pyrrolidone) is listed as 60.8%; in series [3] (Day 2, Trt. Group 4: 10 mg/kg in Dipropylene glycol monomethyl ether/butyl acetate), 72.0%; in series [3] (Day 2, Trt. Group 5: 10 mg/kg in Diisopropyl adipate), 86.0%; in series [3] (Day 2, Trt. Group 6: 10 mg/kg in Triacetin) it was 79.2%; in series [3] (Day 9, Trt. Group 2: 10 mg/kg in Butyl acetate/octyl acetate), 88.1%; in series [3] (Day 9, Trt. Group 3: 10 mg/kg in Diethylene glycol monoethyl ether (transcutol)/N-methyl-2-pyrrolidone) it was 78.1%. The “% Efficacy against ticks” value in series [3] (Day 9, Trt. Group 4: 10 mg/kg in Dipropylene glycol monomethyl ether/butyl acetate) turned out to be 71.2%; in series [3] (Day 9, Trt. Group 5: 10 mg/kg in Diisopropyl adipate), 90.4%; in series [3] (Day 9, Trt. Group 6: 10 mg/kg in Triacetin), 83.1%; in series [3] (Day 16, Trt. Group 2: 10 mg/kg in Butyl acetate/octyl acetate), 88.7%; in series [3] (Day 16, Trt. Group 3: 10 mg/kg in Diethylene glycol monoethyl ether (transcutol)/N-methyl-2-pyrrolidone) it was 81.4%; in series [3] (Day 16, Trt. Group 4: 10 mg/kg in Dipropylene glycol monomethyl ether/butyl acetate), 90.5%. In addition, the “% Efficacy against ticks” value in series [3] (Day 16, Trt. Group 5: 10 mg/kg in Diisopropyl adipate) is on record as 83.2%; in series [3] (Day 16, Trt. Group 6: 10 mg/kg in Triacetin) it was 91.7%; in series [3] (Day 23, Trt. Group 2: 10 mg/kg in Butyl acetate/octyl acetate) it was 41.1%; in series [3] (Day 23, Trt. Group 3: 10 mg/kg in Diethylene glycol monoethyl ether (transcutol)/N-methyl-2-pyrrolidone) it was 52.2%; in series [3] (Day 23, Trt. Group 4: 10 mg/kg in Dipropylene glycol monomethyl ether/butyl acetate), 38.4%; in series [3] (Day 23, Trt. Group 5: 10 mg/kg in Diisopropyl adipate), 20.4%. Besides, the “% Efficacy against ticks” value in series [3] (Day 23, Trt. Group 6: 10 mg/kg in Triacetin) is reported as 89.1%; in series [3] (Day 30, Trt. Group 2: 10 mg/kg in Butyl acetate/octyl acetate), 64.0%; in series [3] (Day 30, Trt. Group 3: 10 mg/kg in Diethylene glycol monoethyl ether (transcutol)/N-methyl-2-pyrrolidone), 45.9%; in series [3] (Day 30, Trt. Group 4: 10 mg/kg in Dipropylene glycol monomethyl ether/butyl acetate), 71.7%; in series [3] (Day 30, Trt. Group 5: 10 mg/kg in Diisopropyl adipate) it was 78.2%; in series [3] (Day 30, Trt. Group 6: 10 mg/kg in Triacetin), 72.3%. For the same compound, the “% Efficacy against ticks” value in series [3] (Day 44, Trt. Group 2: 10 mg/kg in Butyl acetate/octyl acetate) is on record as −8.6%; in series [3] (Day 44, Trt. Group 3: 10 mg/kg in Diethylene glycol monoethyl ether (transcutol)/N-methyl-2-pyrrolidone), −10.8%; in series [3] (Day 44, Trt. Group 4: 10 mg/kg in Dipropylene glycol monomethyl ether/butyl acetate) it was −29.9%; in series [3] (Day 44, Trt. Group 5: 10 mg/kg in Diisopropyl adipate), 0.3%; in series [3] (Day 44, Trt. Group 6: 10 mg/kg in Triacetin) it was 47.8%.
